Patent publication EP0526936A2, “Cholesterol-lowering agents” (MERCK & CO. INC., priority 1991, dated 1993)

How the values were obtained:
squalene synthase [1] = molecular target: T1, squalene synthase (Homo sapiens, UniProt P37268); assay: Squalene synthase assay, HepG2 cell enzyme; assay type: biochemical; settings: HepG2 enzyme preparation; 12 min preincubation, 12 min reaction at 30 °C; read-out: Squalene Synthase Inhibition IC50 HepG2 Enzyme (converted)
T1 construct: The HepG2 enzyme preparation was centrifuged at 34,000 rpm to separate the cytosol and microsomal enzymes; host or cells: HepG2
T1 sequence (P37268 1-417): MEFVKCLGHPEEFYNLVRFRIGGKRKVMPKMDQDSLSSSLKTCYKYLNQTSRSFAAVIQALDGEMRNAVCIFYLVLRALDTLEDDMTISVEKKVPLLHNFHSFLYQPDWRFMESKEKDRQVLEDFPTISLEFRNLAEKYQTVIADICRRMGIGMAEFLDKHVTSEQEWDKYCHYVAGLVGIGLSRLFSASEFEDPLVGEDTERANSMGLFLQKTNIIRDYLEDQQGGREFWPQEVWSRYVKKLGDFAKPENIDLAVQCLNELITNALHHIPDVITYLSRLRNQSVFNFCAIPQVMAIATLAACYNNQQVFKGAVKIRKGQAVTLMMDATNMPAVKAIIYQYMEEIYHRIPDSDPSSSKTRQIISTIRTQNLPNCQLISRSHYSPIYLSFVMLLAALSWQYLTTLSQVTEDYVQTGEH
Experimental: (§1) The intrinsic squalene synthase inhibitory activity of representative compounds of this invention was measured by the standard in vitro protocol described below:
1. SOURCE: HEPG2 CELL LINE (Liver, hepatoblastoma, Human) ATCC No. HB 8065
Culture Medium: Minimum essential medium (MEM) with non-essential amino acids, sodium pyruvate, and 10% fetal bovine serum. The medium was changed twice weekly. […] The growth medium was prepared as listed below.
SUBCULTURE PROCEDURE: The medium was removed and washed with PBS (Phosphate-Buffered Saline 15.6 mM, pH 7.0). Fresh trypsin (0.25%)-EDTA (0.02%) with Hank's Balanced Salt solution was added and the flask was allowed to stand for a minute before the trypsin solution was removed. The flask was incubated at 370 C until cells detached. Fresh medium was added and the cells were dispersed and dispensed into new flasks. Subcultivation ratio: 1:6.
PREPARATION OF DELIPIDATED SERUM: Fetal calf serum (100 ml) and CAB-O-Sil (2 grams) were stirred overnight at 4°C and centrifuged at 16,000 rpm for 5 hrs. The supernantant was filtered and the serum was stored at 4 C.
48 hrs. prior to harvest, cells grown in MEM with 10% Fetal Calf serum were switched to MEM with 10% delipidated serum.
HARVEST: The medium was removed and the cells were washed with PBS. Fresh trypsin (0.25%)-EDTA (0.02%) with Hanks' Balanced Salt solution was added and allowed to stand and removed. The flask was incubated at 37 C until the cells detached. MEM medium (6 mL/flask) was added to suspend cells and combined into a centrifuge tube. […] Cells were counted ([…] yield from 18 flasks (75 cm^2)), and resuspended in 10 mL of 50mM HEPES (N-[2-Hydroxyethyl]piperazine-N'-[2-ethane-sulfonic acid]) containing 5mM MgCI2, 2mM MnCI2, 10mM DTT, pH 7.5 (enzyme suspension buffer). […]
(§2) Reactions were performed in 1.2 mL polypropylene tube strips of eight. […] The reaction product was extracted with 0.4 mL heptane containing 0.4 µL carrier squalene 0.2 mL of the heptane extract was counted by liquid scintillation. […]
Percent inhibition is calculated by the formula: [formula] […]

squalene synthase [2] = molecular target: T2, squalene synthase (Saccharomyces cerevisiae, UniProt P29704); assay: Squalene synthase assay, yeast enzyme; assay type: biochemical, S. cerevisiae W303-1A; settings: yeast enzyme preparation; 12 min preincubation, 12 min reaction at 30 °C; read-out: Squalene Synthase Inhibition IC50 Yeast Enzyme (converted)
T2 construct: The pellet fractions were suspended at 10-20 mg/ml protein in breakage buffer containing 25% glycerol; endogenous in cells; host or cells: S. cerevisiae W303-1A
T2 sequence (P29704 1-444): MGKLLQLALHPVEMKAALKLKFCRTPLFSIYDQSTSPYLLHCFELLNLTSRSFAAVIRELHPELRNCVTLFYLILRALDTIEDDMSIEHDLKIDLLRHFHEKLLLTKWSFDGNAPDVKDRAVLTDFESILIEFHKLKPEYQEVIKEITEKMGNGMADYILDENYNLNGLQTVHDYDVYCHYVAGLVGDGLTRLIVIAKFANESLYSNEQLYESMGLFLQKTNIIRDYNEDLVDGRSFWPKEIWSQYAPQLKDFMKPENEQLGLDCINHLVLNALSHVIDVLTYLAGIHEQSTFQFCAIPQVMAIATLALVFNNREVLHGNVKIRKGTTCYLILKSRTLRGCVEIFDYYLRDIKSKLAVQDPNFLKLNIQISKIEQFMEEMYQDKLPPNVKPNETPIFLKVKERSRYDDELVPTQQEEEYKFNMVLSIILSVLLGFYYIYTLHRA
Experimental: as §1
S. cerevisiae W303-1A (MATa ade2-1 canl-100 his3-11,15 leu2-3,112 trp1-1 ura3-1) was grown at 30 ° C for 24 hours in YPD medium ([…], 2% glucose) supplemented with 20 µg/mL adenine. The cells were washed and resuspended in a minimal volume of breakage buffer (100 mM KP04, pH 7.4, 3 mM DTT, 1 mM PMSF). The cells were added to the small chamber of the Bead-Beater Cell Disrupter (Biospec Products, Bartlesville, OK) containing 100 g of 0.5 mm glass beads. Buffer was added to fill the chamber. The sealed chamber was packed in ice and processed for 4 cycles of 30 sec with 2 min. cooling between cycles. Cell breakage was determined to be >90% by phase-contrast microscopy. The glass beads were removed by Whatman filter paper and the filtrate collected into an ice- immersed filter flask. The extract was centrifuged at 1500 x g for 10 min at 4°C. The pellet (P1) containing unbroken cells and cell walls was discarded. The supernatant (S1) was centrifuged at 30000 x g for 30 min at 4°C. The pellet (P2) contained about two-thirds of the total squalene synthase activity. The supernatant (S2) can be centrifuged at 100,000 x g for 60 min at 4°C to pellet the remaining activity (P3). The pellet fractions were suspended at 10-20 mg/ml protein in breakage buffer containing 25% glycerol. The activity was stable for several months at -80 ° C.
as §2
(§3) Percent inhibition is calculated by the formula: [formula]
lC50 values were determined by plotting the log of the concentration of the test compound versus the percentage inhibition. […]

Farnesyl Transferase = Farnesyl Transferase (Homo sapiens, UniProt P49356); assay: Farnesyl-transferase assay (inhibition of Ras farnesylation in vitro); assay type: biochemical; settings: ras-CVLS 3 μM, 60 min at room temperature
Experimental: FARNESYL-TRANSFERASE ASSAY
100 µL of 0.5 M DTT was added to 900 µL of 1.1 M HEPES, pH 7.5 and 55.5 mM MgCl2 to yield a 10X buffer consisting of 1.0 M HEPES, pH 7.5, 50 mM MgCl2 and 50 mM DTT.
The reaction mix was prepared as below:
A Blank reaction mix was also prepared with the negative control ras-protein, and the Total/Sample reaction mix received the ras-CVLS. The same volumes were used to prepare the Blank reaction mix as those in Table 1.
The farnesyl trasferase solution was prepared as shown below. The farnesyl transferase mix was prepared right before use.
• i. The assay volume was 100 µL, the volume of sample to be tested was 5 µL and the time of incubation is 60 min at room temperature. • ii. The TECAN 8000/505, an automatic pipetting station, added 50 µL of water plus 5 µL of sample to the assay tubes. • iii. The ras-CVLS reaction mix (20 µL) was manually added to totals and unknowns. The negative control ras-protein reaction mix (20 µL) was manually added to the blank tubes. • iv. The farnesyl transferase mix (25 µL) was manually added to all tubes to initiate the reaction and the assay tubes were kept at room temperature for 60 min. • v. The assay was stopped placing the assay tubes in an ice bath for 5 minutes. • vi. 1.0 mL of 1.0 M HCI in 100% ethanol was then added to each tube. The assay tubes (uncapped) were incubated at 37 ° C for 60 min. to facilitate the hydrolysis of the FPP. • vii. Assay tubes were harvested through a TOMTEC 96-well harvestor (6 x 16 with extended tips, or SKATRON cell harvestor) onto LKB double thickness filter mats. • viii. The cell harvestor was adjusted so that each well was washed with 10 mL of 100% ethanol. • ix. Filter mats were baked in microwave oven for 6-8 min. to dry the filtermats. • x. The filter mats were placed in counting bags, 30 mL of LKB ,8-scint cocktail was added and the filter mats were counted for 120 sec. in the LKB β-plate counter.
Percent inhibition was calculated according to the following equation: [formula] […]

squalene synthase [3] = molecular target: T3, squalene synthase (Rattus norvegicus, UniProt Q02769); assay: Squalene synthase assay, rat liver microsomes; assay type: biochemical, rats; settings: [4-14C]farnesyl-pyrophosphate, 20 minutes at 30 °C
T3 construct: from tissue; host or cells: liver microsomes of male Charles River CD rats fed 0.1% lovastatin
T3 sequence (Q02769 1-416): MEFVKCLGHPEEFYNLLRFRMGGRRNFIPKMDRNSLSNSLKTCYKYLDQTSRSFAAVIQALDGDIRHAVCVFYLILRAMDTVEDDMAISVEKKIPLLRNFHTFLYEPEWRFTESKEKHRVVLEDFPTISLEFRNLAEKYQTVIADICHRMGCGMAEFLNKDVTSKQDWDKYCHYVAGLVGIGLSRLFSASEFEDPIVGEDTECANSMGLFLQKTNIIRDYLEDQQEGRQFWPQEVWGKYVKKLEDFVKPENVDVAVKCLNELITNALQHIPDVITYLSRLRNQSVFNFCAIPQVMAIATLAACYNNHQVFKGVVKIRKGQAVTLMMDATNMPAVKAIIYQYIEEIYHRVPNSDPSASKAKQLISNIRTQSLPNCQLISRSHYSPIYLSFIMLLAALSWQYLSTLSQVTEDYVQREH
Experimental: Alternatively, the intrinsic squalene synthase inhibitory activity of the compounds formed in the fermentation of the microorganisms of the present invention may be measured by the standard in vitro protocol described below:
Male, CHARLES RIVER@ CD rats (120 to 150 g) were fed a diet containing 0.1% lovastatin for 4 days. The livers from these rats were homogenized in 5 volumes (mL/g) of ice cold 50 mM HEPES (4-(2-hydroxyethyl)-1-piperazine-ethanesulfonic acid), 5 mM EDTA(ethylenediaminetetraacetic acid) pH 7.5 with a Potter-Elvehjem type tissue grinder. The homogenate was centrifuged twice at 20,000 x g for 15 min. at 4°C, discarding the pellet each time. The supernatant was then centrifuged at 100,000 x g for 1 hr at 4°C. The resulting microsomal pellet was resuspended in a volume of the above homogenizing buffer equal to one-fifth the volume of the original homogenate. This microsomal preparation has a protein concentration of about 7 mg/mL. The microsomal suspensions were stored in aliquots at -70 °C. Squalene synthase activity in these aliquots is stable for a least several months. […]
This assay mix was degassed under a vacuum and flushed with N2. […] Ten mL of scintillation fluid was added to the heptane solution and radioactivity was determined by liquid scintillation counting.
as §3

IC50 (squalene synthase [1]) | IC50 (squalene synthase [2]) | IC50 (Farnesyl Transferase) | IC50 (squalene synthase [3]) | SMILES
70.3 µM | 12700 nM | 8 µM | 15 µM | CCCCCCCC(=O)CCCCCC/C=C/C(C(=O)NC(Cc1ccc(O)cc1)C(=O)O)C(O)(CC(=O)O)C(=O)O (stereo not shown) [Compound A]
33.5 µM | 1740 nM | 4.5 µM |  | CCCCCCCC(=O)CCCCCC/C=C/C(C(=O)NC(Cc1ccccc1)C(=O)O)C(O)(CC(=O)O)C(=O)O (stereo not shown) [Compound C]
0.472 µM | 358 nM | 3.3 µM |  | CCCCCCCC(=O)CCCCCC/C=C/C(C(=O)NC(Cc1c[nH]c2ccccc12)C(=O)O)C(O)(CC(=O)O)C(=O)O (stereo not shown) [Compound D]
